Test results published in ChEMBL document CHEMBL4000232, “Structure-based optimization of 1H-imidazole-2-carboxamides as Axl kinase inhibitors utilizing a Mer mutant surrogate” (Bioorg Med Chem Lett, 2017).

Key:
[1] = Oral bioavailability in rat; type: ADME, organism-based; conditions: in vivo
[2] = Clearance in rat; type: ADME; conditions: in vivo
[3] = target: hERG (KCNH2) (Homo sapiens, UniProt Q12809); experiment: Inhibition of human ERG at 10 uM relative to control
[4] = Permeability of the compound by PAMPA; type: physicochemical; conditions: read-out: permeability
[5] = Extraction ratio in rat hepatic microsomes; type: ADME, Microsome; conditions: liver microsomes, read-out: ERH
[6] = target: T1, Tyrosine-protein kinase receptor UFO (Homo sapiens, UniProt P30530); experiment: Inhibition of Axl (unknown origin)
T1 sequence (P30530 whole entry): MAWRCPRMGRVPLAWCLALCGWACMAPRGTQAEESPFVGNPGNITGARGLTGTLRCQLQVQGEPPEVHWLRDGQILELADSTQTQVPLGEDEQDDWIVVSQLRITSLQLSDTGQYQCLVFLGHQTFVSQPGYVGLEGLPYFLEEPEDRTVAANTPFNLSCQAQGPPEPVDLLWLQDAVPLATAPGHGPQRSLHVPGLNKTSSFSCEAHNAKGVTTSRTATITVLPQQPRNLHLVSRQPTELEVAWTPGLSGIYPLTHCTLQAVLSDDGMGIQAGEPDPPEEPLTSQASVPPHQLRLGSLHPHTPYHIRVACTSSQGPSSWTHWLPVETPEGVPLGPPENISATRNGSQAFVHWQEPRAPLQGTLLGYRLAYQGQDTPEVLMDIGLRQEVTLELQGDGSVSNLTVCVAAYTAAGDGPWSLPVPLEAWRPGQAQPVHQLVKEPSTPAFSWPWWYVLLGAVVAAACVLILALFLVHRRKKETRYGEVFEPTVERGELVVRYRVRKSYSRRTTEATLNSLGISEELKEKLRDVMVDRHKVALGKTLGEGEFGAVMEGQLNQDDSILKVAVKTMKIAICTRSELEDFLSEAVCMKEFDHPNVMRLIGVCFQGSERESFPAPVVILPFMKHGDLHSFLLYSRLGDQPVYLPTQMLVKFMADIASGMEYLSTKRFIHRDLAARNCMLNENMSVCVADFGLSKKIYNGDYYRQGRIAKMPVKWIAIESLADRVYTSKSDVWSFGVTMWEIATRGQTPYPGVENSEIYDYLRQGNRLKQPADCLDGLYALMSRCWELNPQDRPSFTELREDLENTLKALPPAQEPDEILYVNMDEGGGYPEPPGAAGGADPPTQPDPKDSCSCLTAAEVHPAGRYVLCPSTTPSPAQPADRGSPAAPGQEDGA

[7] = Extraction ratio in human hepatic microsomes; type: ADME, Microsome; conditions: liver microsomes, read-out: ERH
[8] = Protein binding in human plasma; type: ADME, cell-free; conditions: read-out: PPB (converted)
[9] = test system: HepG2; experiment: Cytotoxicity against human HepG2 cells; type: functional
[10] = Protein binding in rat plasma; type: ADME, cell-free; conditions: read-out: PPB (converted)
[11] = test system: Liver; experiment: Intrinsic clearance in rat liver microsomes; type: ADME, microsome
[12] = Inhibition of CYP450 (unknown origin); type: ADME; conditions: human

hERG (KCNH2), sequence (Q12809 whole entry): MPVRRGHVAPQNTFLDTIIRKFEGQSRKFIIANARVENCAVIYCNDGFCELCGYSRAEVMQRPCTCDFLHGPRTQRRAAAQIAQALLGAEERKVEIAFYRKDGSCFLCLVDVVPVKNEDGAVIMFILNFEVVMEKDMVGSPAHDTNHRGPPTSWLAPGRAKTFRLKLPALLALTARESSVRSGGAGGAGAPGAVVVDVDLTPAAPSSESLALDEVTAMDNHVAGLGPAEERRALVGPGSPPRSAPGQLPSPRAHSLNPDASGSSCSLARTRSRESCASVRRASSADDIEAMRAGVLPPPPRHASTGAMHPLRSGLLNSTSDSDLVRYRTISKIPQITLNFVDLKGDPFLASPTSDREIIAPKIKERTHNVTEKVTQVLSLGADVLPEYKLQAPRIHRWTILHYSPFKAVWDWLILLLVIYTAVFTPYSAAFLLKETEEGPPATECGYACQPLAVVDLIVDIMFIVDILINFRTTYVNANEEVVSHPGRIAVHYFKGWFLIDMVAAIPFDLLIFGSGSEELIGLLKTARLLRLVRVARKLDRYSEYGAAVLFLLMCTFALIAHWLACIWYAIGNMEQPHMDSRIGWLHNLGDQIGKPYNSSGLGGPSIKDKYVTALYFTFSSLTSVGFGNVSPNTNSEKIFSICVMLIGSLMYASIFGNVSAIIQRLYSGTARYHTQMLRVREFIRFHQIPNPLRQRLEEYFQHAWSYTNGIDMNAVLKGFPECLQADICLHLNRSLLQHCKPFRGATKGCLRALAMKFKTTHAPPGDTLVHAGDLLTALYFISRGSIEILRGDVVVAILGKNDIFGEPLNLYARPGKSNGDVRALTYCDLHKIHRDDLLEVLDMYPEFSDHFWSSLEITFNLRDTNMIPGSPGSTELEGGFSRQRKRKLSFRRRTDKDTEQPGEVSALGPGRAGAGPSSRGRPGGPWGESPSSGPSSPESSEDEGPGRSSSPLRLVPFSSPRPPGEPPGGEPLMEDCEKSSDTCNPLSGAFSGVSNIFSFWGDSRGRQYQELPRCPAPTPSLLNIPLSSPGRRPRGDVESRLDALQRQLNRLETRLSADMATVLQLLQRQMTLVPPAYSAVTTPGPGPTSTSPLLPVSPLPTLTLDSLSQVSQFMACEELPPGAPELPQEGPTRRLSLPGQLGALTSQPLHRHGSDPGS

| hepatic extraction ratio [5] | IC50 [6] [nM] | hepatic extraction ratio [7] | SMILES | further results |
| --- | --- | --- | --- | --- |
| 0.71 | > 1000 | 0.9 | CS(=O)(=O)N1CCC[C@H](c2csc(-c3ccccc3NC(=O)c3cnc[nH]3)n2)C1 | – |
| 0.86 | > 630 | 0.95 | CCS(=O)(=O)N1CCC[C@H](c2csc(-c3ccccc3NC(=O)c3ncc[nH]3)n2)C1 | – |

Continued, compound first:

| SMILES | hepatic extraction ratio [5] | IC50 [6] [nM] | hepatic extraction ratio [7] | further results |
| --- | --- | --- | --- | --- |
| CS(=O)(=O)N1CCC[C@H](c2csc(-c3ccccc3NC(=O)c3ncc[nH]3)n2)C1 | – | – | – | bioavailability [1]: 13%; clearance [2]: 20 mL/min/kg; inhibition at 10 µM [3]: 94%; Papp [4]: 15.7 ×10⁻⁶ cm/s |
| CS(=O)(=O)N1CCC[C@H](c2csc(-c3ccccc3NC(=O)c3nc4ccccc4[nH]3)n2)C1 | 0.87 | > 1000 | 0.86 | – |
| COC(=O)N1CCC[C@H](c2csc(-c3ccccc3NC(=O)c3ncc[nH]3)n2)C1 | 0.69 | > 1000 | 0.75 | – |
| CS(=O)(=O)N1CCO[C@H](c2csc(-c3cc(N4CCOCC4)ccc3NC(=O)c3ncc[nH]3)n2)C1 | – | – | – | bioavailability [1]: 38%; clearance [2]: 54 mL/min/kg; fraction unbound [8]: 0.21; Activity [9]: 14 µM; fraction unbound [10]: 0.1; inhibition at 10 µM [3]: 19%; Papp [4]: 18.4 ×10⁻⁶ cm/s; CLH [11]: 35 mL/min/kg; inhibition (INH) [12]: > 16% |
| CC(=O)N1CCC[C@H](c2csc(-c3ccccc3NC(=O)c3ncc[nH]3)n2)C1 | 0.67 | > 1000 | 0.78 | – |
